Assay results as given in patent US6451835B1, “Pesticidal fluoroethyl pyrazole derivatives” (Uniroyal Chemical Company, Inc., priority 2001, dated 2002).

Experiments:
Type in all cases: in vivo
[1] = system: rice delphacids, Sogatodes orizicola; assay: Rice planthopper foliar test (RPH); settings: 1000 ppm spray on rice seedlings; adults added 1 day after treatment, counted five days after transferring
Procedure: (§1) Stock solutions of each of the compounds were prepared at 1000 ppm by dissolving 0.08 gram of each compound to be tested in 8 mL of acetone and adding 72 mL of distilled water plus 3 drops of ethoxylated sorbitan monolaurate, a wetting agent. […] For each example that follows, these stock solutions were used and the specified dilutions made. All the tests discussed below, which involved treatment with compounds of this invention, were always repeated with controls to permit a comparison upon which the percent control was calculated.
One thousand ppm of each stock solution of Example 2 was used for this test. One pot containing approximately 20 rice seedlings was treated with each formulation by spraying with a spray atomizer. One day after treatment, plants were covered with a tubular cage and 20 adult rice delphacids, Sogatodes orizicola, were transferred into each cage. Five days after transferring, counts were made of the surviving planthoppers in each pot and percent control was estimated.

[2] = system: Tefranychus urticae Koch eggs; assay: Mite ovicide test (MIOV); settings: 1000 ppm spray to run off on cowpea leaves; unhatched eggs read nine days following treatment
Procedure: (§2) Stock solutions of each of the compounds were prepared at 1000 ppm by dissolving 0.08 gram of each compound to be tested in 8 mL of acetone and adding 72 mL of distilled water plus 3 drops of ethoxylated sorbitan monolaurate, a wetting agent. […] For each example that follows, these stock solutions were used and the specified dilutions made. All the tests discussed below, which involved treatment with compounds of this invention, were always repeated with controls to permit a comparison upon which the percent control was calculated. One day before treatment of cowpea primary leaves with the test solutions, a “FIG. 8” configuration of tree tanglefoot was applied to each of two cowpea primary leaves, one from each of two plants in a pot. In each “Figure”, the circle nearer the stem was designated for the mite ovicide test and the circle farther from the stem was designated for the mite adulticide test. Groups of adult mites (Tefranychus urticae Koch) were transferred into ovicide circles one day before treatment and the females were allowed to deposit eggs until one hour before treatment, at which point all the adults were removed. The plants were then sprayed to run off with each 1000 ppm stock solution of Example 2. One day following treatment of the plants with the test solution, groups of approximately 25 adult mites were transferred into the adulticide rings. Five days later, these rings were examined for live mites remaining on the leaves. The percent control was estimated based on the number of mites surviving on the control plants. Nine days following treatment the ovicide rings were examined for unhatched eggs and living immature mites. The percent control was estimated based on the number of unhatched eggs.

Tefranychus urticae Koch = assay: Mite adulticide test (MI); settings: 1000 ppm spray to run off on cowpea leaves; adult mites added 1 day after treatment, read five days later
Procedure: as §2

[3] = system: root knot nematode (Meloidogmne incognita); assay: Nematode test (NE); settings: soil drench, soil concentration of 50 ppm; tomato seedling roots evaluated for galls nineteen days after planting
Procedure: Stock solutions of each of the compounds were prepared at 1000 ppm by dissolving 0.08 gram of each compound to be tested in 8 mL of acetone and adding 72 mL of distilled water plus 3 drops of ethoxylated sorbitan monolaurate, a wetting agent. […] For each example that follows, these stock solutions were used and the specified dilutions made. All the tests discussed below, which involved treatment with compounds of this invention, were always repeated with controls to permit a comparison upon which the percent control was calculated. One thousand ppm of each stock solution of Example 2 was used for this test. For each test solution, 25 mL was drenched onto separate 500 gram samples of soil infested with root knot nematode (Meloidogmne incognita) eggs in a pot, for a soil concentration of 50 ppm. One day after treatment, two tomato seedlings were planted in each pot. Nineteen days after planting, the roots were evaluated for the presence of knots or galls, and the percent control was estimated on the infestation levels in check plants.

[4] = system: Southern Corn Rootworm (Diabrotica undecimpuncatat); assay: Southern corn rootworm test (CR); settings: 100 ppm test solution, corn seedlings on filter paper; second instar larvae; after five days; corrected by Abbott's formula
Procedure: Stock solutions of each of the compounds were prepared at 1000 ppm by dissolving 0.08 gram of each compound to be tested in 8 mL of acetone and adding 72 mL of distilled water plus 3 drops of ethoxylated sorbitan monolaurate, a wetting agent. […] For each example that follows, these stock solutions were used and the specified dilutions made. All the tests discussed below, which involved treatment with compounds of this invention, were always repeated with controls to permit a comparison upon which the percent control was calculated. One thousand ppm of each stock solution of Example 2 was diluted to 100 ppm (the “test solution”). For each compound, 2.5 mL of each test solution was pipetted onto a filter paper (Whatman #3) at the bottom of a 100 mm petri dish. Two corn seedlings were soaked in the 100 ppm solution for one hour and transferred to the petri dish containing the same test solution. After 24 hours, each dish was loaded with 5 second instar larvae of Southern Corn Rootworm (Diabrotica undecimpuncatat). After five days, the number of live larvae was noted and the percent control, corrected by Abbott's formula, was calculated.

[5] = system: Helicoverpa virescens larva; assay: Tobacco budworm test (TB); settings: 0.2 mL of 1000 ppm stock solution on diet cell surface; second instar larva; after 14 days; corrected by Abbott's formula
Procedure: as §1
For each compound tested, 0.2 mL of each stock solution of Example 2 was pipetted onto the surfaces of each of five diet cells, allowed to spread over the surfaces, and air dried for two hours. Then, a second instar Helicoverpa virescens larva was introduced into each cell. After 14 days, the number of living larvae was determined for each treatment and percent control, corrected by Abbott's formula (J. Econ. Entomology (1925, 265-267), was calculated. The results of the testing of tobacco budworms (TB) are presented in Table 2.

## FCCC1(c2ccccc2)C=NNC1 (stereo not drawn) [Compound 1, 4-(2-fluoroethyl)-4-phenyl-1H-pyrazole]
[1]
  Percent Control RPH: 20%
[2]
  Percent Control MIOV: 100%
Tefranychus urticae Koch
  Percent Control MI: 0%
[3]
  Percent Control NE: 50%
[4]
  Percent Control CR: 0%
[5]
  Percent Control TB: 20%

## FCCn1cc(-c2ccc(Cl)cc2)cn1 [Compound 2]
[1]
  Percent Control RPH: 0%
[2]
  Percent Control MIOV: 100%
Tefranychus urticae Koch
  Percent Control MI: 100%
[3]
  Percent Control NE: 100%
[4]
  Percent Control CR: 100%
[5]
  Percent Control TB: 40%

## FCCn1cc(-c2ccc(C(F)(F)F)cc2)cn1 [Compound 3]
[1]
  Percent Control RPH: 0%
[2]
  Percent Control MIOV: 0%
Tefranychus urticae Koch
  Percent Control MI: 0%
[3]
  Percent Control NE: 0%
[4]
  Percent Control CR: 100%
[5]
  Percent Control TB: 100%

## FCCn1cc(-c2cccc(Br)c2)cn1 [Compound 4]
[1]
  Percent Control RPH: 0%
[2]
  Percent Control MIOV: 100%
Tefranychus urticae Koch
  Percent Control MI: 100%
[3]
  Percent Control NE: 100%
[4]
  Percent Control CR: 0%
[5]
  Percent Control TB: 7%

## FCCn1cc(-c2ccc(Cl)c(Cl)c2)cn1 [Compound 5]
[1]
  Percent Control RPH: 0%
[2]
  Percent Control MIOV: 100%
Tefranychus urticae Koch
  Percent Control MI: 100%
[3]
  Percent Control NE: 60%
[4]
  Percent Control CR: 63%
[5]
  Percent Control TB: 0%

## FCCn1cc(-c2cccc(C(F)(F)F)c2)cn1 [Compound 6]
[1]
  Percent Control RPH: 85%
[2]
  Percent Control MIOV: 100%
Tefranychus urticae Koch
  Percent Control MI: 0%
[3]
  Percent Control NE: 100%
[4]
  Percent Control CR: 100%
[5]
  Percent Control TB: 0%

## FCCn1cc(-c2ccc(OC(F)(F)F)cc2)cn1 [Compound 7]
[1]
  Percent Control RPH: 85%
[2]
  Percent Control MIOV: 100%
Tefranychus urticae Koch
  Percent Control MI: 0%
[3]
  Percent Control NE: 100%
[4]
  Percent Control CR: 100%
[5]
  Percent Control TB: 0%
